Assay results reported in patent US8623899B2, “Bis-benzimidazole derivatives as hepatitis C virus inhibitors” (Janssen Research & Development Ireland, priority 2009, dated 2014).

System: HCV type 1b replicon in Huh-7 luc/neo (Huh-Luc) cells
Test: HCV replicon assay (Huh-Luc, luciferase readout)
Assay type: cell-based
Settings: Hepatitis C virus, Huh-7, 72 h, luciferase activity, incubation of three days, read-out: HCV-REP-HUH7LUC_EC50
From the text: The compounds of formula (I) were examined for inhibitory activity in the HCV replicon. This cellular assay is based on a bicistronic expression construct, as described by Lohmann et al. (1999) Science vol. 285 pp. 110-113 with modifications described by Krieger et al. (2001) Journal of Virology 75: 4614-4624, in a multi-target screening strategy.
In essence, the method was as follows:
The assay utilized the stably transfected cell line Huh-7 luc/neo (hereafter referred to as Huh-Luc). This cell line harbors an RNA encoding a bicistronic expression construct comprising the wild type NS3-NS5B regions of HCV type 1b translated from an Internal Ribosome Entry Site (IRES) from encephalomyocarditis virus (EMCV), preceded by a reporter portion (FfL-luciferase), and a selectable marker portion (neo^R, neomycine phosphotransferase). The construct is flanked by 5′ and 3′ NTRs (non-translated regions) from HCV type 1b. Continued culture of the replicon cells in the presence of G418 (neo^R) is dependent on the replication of the HCV RNA. The stably transfected replicon cells that express HCV RNA, which replicates autonomously and to high levels, encoding inter alia luciferase, were used for screening the antiviral compounds.
The replicon cells were plated in 384 well plates in the presence of the test and control compounds which were added in various concentrations. Following an incubation of three days, HCV replication was measured by assaying luciferase activity (using standard luciferase assay substrates and reagents and a Perkin Elmer ViewLux™ ultraHTS microplate imager). Replicon cells in the control cultures have high luciferase expression in the absence of any inhibitor. The inhibitory activity of the compound on luciferase activity was monitored on the Huh-Luc cells, enabling a dose-response curve for each test compound. EC50 values were then calculated, which represent the amount of compound required to decrease the level of detected luciferase activity by 50%, or more specifically, to reduce the ability of the genetically linked HCV replicon RNA to replicate.

| Structure (SMILES) | EC50 [nM] |
| --- | --- |
| O=C(C(O)Cc1cccnc1)N1CCC[C@H]1c1nc2ccc(-c3ccc(-c4ccc5nc([C@@H]6CCCN6C(=O)C(O)Cc6cccnc6)[nH]c5c4)cc3)cc2[nH]1 (mixture of isomers) [Compound 35] | 22 |
| O=C(C(c1ccccc1)N1C2CCC1CC2)N1CCC[C@H]1c1nc2ccc(-c3ccc(-c4ccc5nc([C@@H]6CCCN6C(=O)C(c6ccccc6)N6C7CCC6CC7)[nH]c5c4)cc3)cc2[nH]1 (mixture of isomers) [Compound 43] | 3.2 |
| O=C(C(c1ccccc1)N1CCCC(F)(F)C1)N1CCC[C@H]1c1nc2ccc(-c3ccc(-c4ccc5nc([C@@H]6CCCN6C(=O)C(c6ccccc6)N6CCCC(F)(F)C6)[nH]c5c4)cc3)cc2[nH]1 (mixture of isomers) [Compound 44] | 0.22 |
| O=C(C(Nc1ccccc1)c1ccc(Cl)cc1)N1CCC[C@H]1c1nc2ccc(-c3ccc(-c4ccc5nc([C@@H]6CCCN6C(=O)C(Nc6ccccc6)c6ccc(Cl)cc6)[nH]c5c4)cc3)cc2[nH]1 (mixture of isomers) [Compound 47] | 1.5 |
| COC(=O)NC(C(=O)N1CCC[C@H]1c1nc2ccc(-c3ccc(-c4ccc5nc([C@@H]6CCCN6C(=O)C(NC(=O)OC)C6CCOCC6)[nH]c5c4)cc3)cc2[nH]1)C1CCOCC1 (mixture of isomers) [Compound 55] | 0.18 |
| O=C(Cc1ccccc1)N1CCC[C@H]1c1nc2ccc(-c3ccc(-c4ccc5nc([C@@H]6CCCN6C(=O)Cc6ccccc6)[nH]c5c4)cc3)cc2[nH]1 [Compound 1] | 0.1 |
| COC(=O)N[C@H](C(=O)N1CCC[C@H]1c1nc2cc(-c3ccc(-c4ccc5nc([C@@H]6CCCN6C(=O)[C@@H](NC(=O)OC)[C@@H](C)OC)[nH]c5c4)cc3)ccc2[nH]1)[C@@H](C)OC [Compound 2] | 0.021 |
| O=C([C@H]1CCCO1)N1CCC[C@H]1c1nc2ccc(-c3ccc(-c4ccc5nc([C@@H]6CCCN6C(=O)[C@H]6CCCO6)[nH]c5c4)cc3)cc2[nH]1 [Compound 3] | 20 |
| CC(=O)N[C@@H](C(=O)N1CCC[C@H]1c1nc2ccc(-c3ccc(-c4ccc5nc([C@@H]6CCCN6C(=O)[C@H](NC(C)=O)c6ccccc6)[nH]c5c4)cc3)cc2[nH]1)c1ccccc1 [Compound 4] | 0.18 |
| CN(C)C(C(=O)N1CCC[C@H]1c1nc2ccc(-c3ccc(-c4ccc5nc([C@@H]6CCCN6C(=O)C(c6ccc(Cl)cc6)N(C)C)[nH]c5c4)cc3)cc2[nH]1)c1ccc(Cl)cc1 (stereo partly shown) [Compound 5] | 0.59 |
| COc1cccc(CCC(=O)N2CCC[C@H]2c2nc3ccc(-c4ccc(-c5ccc6nc([C@@H]7CCCN7C(=O)CCc7cccc(OC)c7)[nH]c6c5)cc4)cc3[nH]2)c1 [Compound 6] | 500 |
| O=C([C@@H](O)c1ccccc1)N1CCC[C@H]1c1nc2ccc(-c3ccc(-c4ccc5nc([C@@H]6CCCN6C(=O)[C@@H](O)c6ccccc6)[nH]c5c4)cc3)cc2[nH]1 [Compound 7] | 0.057 |
| O=C(CCc1ccccc1F)N1CCC[C@H]1c1nc2ccc(-c3ccc(-c4ccc5nc([C@@H]6CCCN6C(=O)CCc6ccccc6F)[nH]c5c4)cc3)cc2[nH]1 [Compound 8] | 160 |
| COC(=O)NC1(C(=O)N2CCC[C@H]2c2nc3ccc(-c4ccc(-c5ccc6nc([C@@H]7CCCN7C(=O)C7(NC(=O)OC)CC7)[nH]c6c5)cc4)cc3[nH]2)CC1 [Compound 9] | 1 |
| COc1c(F)cc(CC(=O)N2CCC[C@H]2c2nc3ccc(-c4ccc(-c5ccc6nc([C@@H]7CCCN7C(=O)Cc7cc(F)c(OC)c(F)c7)[nH]c6c5)cc4)cc3[nH]2)cc1F [Compound 10] | 130 |
| O=C(Cc1ccccc1OC(F)(F)F)N1CCC[C@H]1c1nc2ccc(-c3ccc(-c4ccc5nc([C@@H]6CCCN6C(=O)Cc6ccccc6OC(F)(F)F)[nH]c5c4)cc3)cc2[nH]1 [Compound 11] | 160 |
| O=C(Cc1cccnc1)N1CCC[C@H]1c1nc2ccc(-c3ccc(-c4ccc5nc([C@@H]6CCCN6C(=O)Cc6cccnc6)[nH]c5c4)cc3)cc2[nH]1 [Compound 12] | 0.15 |
| O=C(CCc1cccnc1)N1CCC[C@H]1c1nc2ccc(-c3ccc(-c4ccc5nc([C@@H]6CCCN6C(=O)CCc6cccnc6)[nH]c5c4)cc3)cc2[nH]1 [Compound 13] | 0.5 |
| O=C([C@@H]1CCCO1)N1CCC[C@H]1c1nc2ccc(-c3ccc(-c4ccc5nc([C@@H]6CCCN6C(=O)[C@@H]6CCCO6)[nH]c5c4)cc3)cc2[nH]1 [Compound 14] | 36 |
| O=C(C(=O)N1CCC[C@H]1c1nc2ccc(-c3ccc(-c4ccc5nc([C@@H]6CCCN6C(=O)C(=O)c6ccccc6)[nH]c5c4)cc3)cc2[nH]1)c1ccccc1 [Compound 15] | 40 |

| Structure (SMILES) | EC50 [nM] |
| --- | --- |
| O=C(Cc1ccc2c(c1)OCO2)N1CCC[C@H]1c1nc2ccc(-c3ccc(-c4ccc5nc([C@@H]6CCCN6C(=O)Cc6ccc7c(c6)OCO7)[nH]c5c4)cc3)cc2[nH]1 [Compound 16] | 69 |
| CCN(CC)[C@@H](C(=O)N1CCC[C@H]1c1nc2ccc(-c3ccc(-c4ccc5nc([C@@H]6CCCN6C(=O)[C@@H](c6ccccc6)N(CC)CC)[nH]c5c4)cc3)cc2[nH]1)c1ccccc1 [Compound 17] | 0.03 |
| CN(C)CCC(=O)N1CCC[C@H]1c1nc2ccc(-c3ccc(-c4ccc5nc([C@@H]6CCCN6C(=O)CCN(C)C)[nH]c5c4)cc3)cc2[nH]1 [Compound 18] | 49 |
| O=C(C(c1ccccc1)n1ccnc1)N1CCC[C@H]1c1nc2ccc(-c3ccc(-c4ccc5nc([C@@H]6CCCN6C(=O)C(c6ccccc6)n6ccnc6)[nH]c5c4)cc3)cc2[nH]1 (stereo partly shown) [Compound 19] | 0.45 |
| O=C([C@@H](c1ccccc1)N1CCCCC1)N1CCC[C@H]1c1nc2ccc(-c3ccc(-c4ccc5nc([C@@H]6CCCN6C(=O)[C@@H](c6ccccc6)N6CCCCC6)[nH]c5c4)cc3)cc2[nH]1 [Compound 20] | 0.061 |
| O=C(c1ccoc1)N1CCC[C@H]1c1nc2ccc(-c3ccc(-c4ccc5nc([C@@H]6CCCN6C(=O)c6ccoc6)[nH]c5c4)cc3)cc2[nH]1 [Compound 21] | 58 |
| CCC(=O)N[C@@H](C(=O)N1CCC[C@H]1c1nc2ccc(-c3ccc(-c4ccc5nc([C@@H]6CCCN6C(=O)[C@H](NC(=O)CC)c6ccccc6)[nH]c5c4)cc3)cc2[nH]1)c1ccccc1 [Compound 22] | 0.034 |
| CNC(=O)N[C@H](C(=O)N1CCC[C@H]1c1nc2ccc(-c3ccc(-c4ccc5nc([C@@H]6CCCN6C(=O)[C@@H](NC(=O)NC)C(C)C)[nH]c5c4)cc3)cc2[nH]1)C(C)C [Compound 23] | 0.57 |
| Cc1nc(C(=O)N2CCC[C@H]2c2nc3ccc(-c4ccc(-c5ccc6nc([C@@H]7CCCN7C(=O)c7nc(C)oc7C)[nH]c6c5)cc4)cc3[nH]2)c(C)o1 [Compound 24] | 1.4 |
| O=C(c1ccccn1)N1CCC[C@H]1c1nc2ccc(-c3ccc(-c4ccc5nc([C@@H]6CCCN6C(=O)c6ccccn6)[nH]c5c4)cc3)cc2[nH]1 [Compound 25] | 1.7 |
| CC(C)C[C@@H](C(=O)N1CCC[C@H]1c1nc2ccc(-c3ccc(-c4ccc5nc([C@@H]6CCCN6C(=O)[C@H](CC(C)C)N(C)C)[nH]c5c4)cc3)cc2[nH]1)N(C)C [Compound 26] | 76 |
| O=C(c1ccc(F)cc1)N1CCC[C@H]1c1nc2ccc(-c3ccc(-c4ccc5nc([C@@H]6CCCN6C(=O)c6ccc(F)cc6)[nH]c5c4)cc3)cc2[nH]1 [Compound 27] | 240 |
| CC(C)[C@@H](C(=O)N1CCC[C@H]1c1nc2ccc(-c3ccc(-c4ccc5nc([C@@H]6CCCN6C(=O)[C@H](C(C)C)N(C)C)[nH]c5c4)cc3)cc2[nH]1)N(C)C [Compound 28] | 70 |
| O=C(CC1CCCCC1)N1CCC[C@H]1c1nc2ccc(-c3ccc(-c4ccc5nc([C@@H]6CCCN6C(=O)CC6CCCCC6)[nH]c5c4)cc3)cc2[nH]1 [Compound 29] | 550 |
| COC(=O)N[C@H](C(=O)N1CCC[C@H]1c1nc2ccc(-c3ccc(-c4ccc5nc([C@@H]6CCCN6C(=O)[C@@H](NC(=O)OC)C(C)C)[nH]c5c4)cc3)cc2[nH]1)C(C)C [Compound 30] | 0.006 |
| O=C(c1cccnc1)N1CCC[C@H]1c1nc2ccc(-c3ccc(-c4ccc5nc([C@@H]6CCCN6C(=O)c6cccnc6)[nH]c5c4)cc3)cc2[nH]1 [Compound 31] | 280 |
| COC(=O)N[C@@H](C(=O)N1CCC[C@H]1c1nc2ccc(-c3ccc(-c4ccc5nc([C@@H]6CCCN6C(=O)[C@H](NC(=O)OC)C(C)C)[nH]c5c4)cc3)cc2[nH]1)C(C)C [Compound 32] | 6.9 |
| CC(C)[C@H](O)C(=O)N1CCC[C@H]1c1nc2ccc(-c3ccc(-c4ccc5nc([C@@H]6CCCN6C(=O)[C@@H](O)C(C)C)[nH]c5c4)cc3)cc2[nH]1 [Compound 33] | 110 |
| O=C([C@H](O)c1ccccc1)N1CCC[C@H]1c1nc2ccc(-c3ccc(-c4ccc5nc([C@@H]6CCCN6C(=O)[C@H](O)c6ccccc6)[nH]c5c4)cc3)cc2[nH]1 [Compound 34] | 0.0037 |
| CN(C)[C@@H](C(=O)N1CCC[C@H]1c1nc2ccc(-c3ccc(-c4ccc5nc([C@@H]6CCCN6C(=O)[C@@H](c6ccccc6)N(C)C)[nH]c5c4)cc3)cc2[nH]1)c1ccccc1 [Compound 36] | 0.073 |
